US10626115B2, “Fused pyrimidinone and triazinone derivatives containing bridged nitrogen, their process of preparation and their therapeutic uses as antifungal and/or antiparasitic agents” (UNIVERSITE DE NANTES, priority 2015, dated 2020)
In brackets after ≈: the same amount, converted by molar mass.

Columns and labels:
[1] = tested on: promastigote stage of a Leishmania mexicana strain; assay: Anti-Trypanosomatidae activity, promastigote stage, spectrofluorimetric microdilution; format: cell-based; details: for IC50: Leishmania mexicana, promastigote stage, 50% of control growth, read-out: L. mexicana (IC50 μM)
Method: Compounds were evaluated on the promastigote stage of a Leishmania mexicana strain using a spectrofluorimetric microdilution method. Inhibitory concentration 50 (IC50) was the concentration that inhibited 50% of the control growth.

[2] = tested on: A. fumigatus itraconazole-resistant strain ASFU77 (erg11 mutation); assay: Antifungal susceptibility, spectrofluorimetric microdilution, ASFU77; format: cell-based, Aspergillus fumigatus; details: Aspergillus fumigatus, read-out: MIC values ASFU77
Method: (§1) Eleven strains of A. fumigatus with various itraconazole susceptibility were used: • Five susceptible strains: ASFU7, ASFU35A, ASFU38A, ASFU76 and ASFU78. • Six itraconazole-resistant strains: ASFU77 (erg11 mutation), ASFU13, ASFU17, ASFU19, ASFU20, ASFU23.
(§2) Antifungal susceptibility was evaluated with a spectrofluorimetric microdilution method. MIC was the concentration that was able to inhibit 80% of fluorescence measured in the control wells.

[3] = tested on: A. fumigatus susceptible strain ASFU78; assay: Antifungal susceptibility, spectrofluorimetric microdilution, ASFU78; format: cell-based, Aspergillus fumigatus; details: Aspergillus fumigatus, read-out: MIC values ASFU78
Method: as §1, §2

[4] = tested on: Aspergillus fumigatus (ASFU7) spores; assay: Murine invasive aspergillosis; format: in vivo; details: neutropenic Swiss mice, ASFU7 spores i.v., 10 mg/kg per os once a day for 5 days
Method: (§3) Transiently neutropenic female Swiss mice were used for experiments on systemic candidiasis and invasive aspergillosis.
Mice were inoculated intravenously with Aspergillus fumigatus (ASFU7) spores.
Treatment was administrated once a day (10 mg/kg per os) for 5 days. […] Fungal burden of the kidney was evaluated in dead animals during the experimentation or in animals sacrificed at the end of the experimentation.

[5] = tested on: A. fumigatus susceptible strain ASFU7; assay: Antifungal susceptibility, spectrofluorimetric microdilution, ASFU7; format: cell-based, Aspergillus fumigatus; details: Aspergillus fumigatus, read-out: MIC values ASFU7
Method: as §1, §2

[6] = tested on: A. fumigatus susceptible strain ASFU38A; assay: Antifungal susceptibility, spectrofluorimetric microdilution, ASFU38A; format: cell-based, Aspergillus fumigatus; details: Aspergillus fumigatus, read-out: MIC values ASFU38A
Method: as §1, §2

[7] = tested on: Candida albicans strain (CAAL93); assay: Murine systemic candidiasis; format: in vivo; details: neutropenic Swiss mice, CAAL93 i.v., 10 mg/kg per os once a day for 5 days; for survival compared with the non-treated group: 28 days (compound 51, 14 days); for survival compared with the non-treated group / activity on fungal burden of the kidney compared to FLC: p<0.05; for fungal burden of the kidney: p<0.05 (compound 51 p<0.001)
Method: as §3
Mice were inoculated intravenously with a Candida albicans strain (CAAL93). Treatment was administrated once a day (10 mg/kg per os) for 5 days. […] Fungal burden of the kidney was evaluated in dead animals during the experimentation or in animals sacrificed at the end of the experimentation.

[8] = tested on: A. fumigatus susceptible strain ASFU76; assay: Antifungal susceptibility, spectrofluorimetric microdilution, ASFU76; format: cell-based, Aspergillus fumigatus; details: Aspergillus fumigatus, read-out: MIC values ASFU76
Method: as §1, §2

[9] = tested on: fluconazole-susceptible C. albicans strain: CAAL93; assay: Antifungal susceptibility, spectrofluorimetric microdilution, CAAL93; format: cell-based; details: Candida albicans, read-out: MIC values CAAL93
Method: (§4) Eight strains of Candida spp. with various azoles-susceptibilities were used: • One fluconazole-susceptible C. albicans strain: CAAL93 • Two fluconazole-resistant C. albicans strains: CAAL111 (efflux pump) and CAAL117 (erg11 mutations+voriconazole-resistant) • five fluconazole-resistant Candida non albicans strains: C. krusei (CAKR7, CAKR8), C. glabrata (CAGL2), C. parapsilosis s.l. (CAPA1, CAPA2).
(§5) Antifungal susceptibility was evaluated with a spectrofluorimetric microdilution method.

[10] = Cytotoxicity on HeLa cells; format: cell-based, Human; details: human, 50% inhibition of control fluorescence
Method: (§6) Hela Human cell line was used in view to evaluate cytotoxicity. It was evaluated with a spectrofluorimetric microdilution method. IC50 was the concentration that was able to inhibit 50% of fluorescence measured in the control wells.

[11] = tested on: A. fumigatus susceptible strain ASFU35A; assay: Antifungal susceptibility, spectrofluorimetric microdilution, ASFU35A; format: cell-based, Aspergillus fumigatus; details: Aspergillus fumigatus, read-out: MIC values ASFU35A
Method: as §1, §2

[12] = tested on: fluconazole-resistant C. krusei (CAKR8); assay: microbe, parasite or virus in culture; format: cell-based; details: Pichia kudriavzevii, read-out: MIC values CAKR8
Method: as §4, §5

[13] = tested on: fluconazole-resistant C. krusei (CAKR7); assay: microbe, parasite or virus in culture; format: cell-based; details: Pichia kudriavzevii, read-out: MIC values CAKR7
Method: as §4, §5

[14] = tested on: fluconazole-resistant C. glabrata (CAGL2); assay: microbe, parasite or virus in culture; format: cell-based; details: Nakaseomyces glabratus, read-out: MIC values CAGL2
Method: as §4, §5

[15] = tested on: fluconazole-resistant C. parapsilosis s.l. (CAPA1); assay: microbe, parasite or virus in culture; format: cell-based; details: Lodderomyces parapsilosis, read-out: MIC values CAPA1
Method: as §4, §5

[16] = tested on: fluconazole-resistant C. parapsilosis s.l. (CAPA2); assay: microbe, parasite or virus in culture; format: cell-based; details: Lodderomyces parapsilosis, read-out: MIC values CAPA2
Method: as §4, §5

[17] = tested on: fluconazole-resistant C. albicans strain CAAL111 (efflux pump); assay: microbe, parasite or virus in culture; format: cell-based; details: Candida albicans, read-out: MIC values CAAL111
Method: as §4, §5

[18] = tested on: Hela Human cell line; assay: Cytotoxicity on HeLa cells; format: cell-based; details: 100 μM
Method: as §6

Structure (SMILES)	effectiveness against the promastigote stage of L. Mexicana, in words [1]	IC50 [1]	MIC [2]	MIC [3]	MIC [5]	MIC [6]	survival efficiency compared with FLC [7]	survival compared with the non-treated group [7]	activity on fungal burden of the kidney compared to FLC [7]	fungal burden of the kidney [7]	MIC [8]	MIC [9]	MIC [11]	MIC [12]	MIC [14]	MIC [15]	MIC [16]	MIC [17]	other results
C[C@@H](n1ccc2nc(-c3ccc(C#N)cc3)cn2c1=O)[C@](O)(Cn1cncn1)c1ccc(F)cc1F [Compound 34, 6-[(1R,2R)-2-(2,4-Difluorophenyl)-2-hydroxy-1-methyl-3-(1H-1,2,4-triazol-1-yl)propyl]-2-(4-cyanophenyl)imidazo[1,2-c]pyrimidin-5-one]	effective	2.8 ± 0.2 µM	38.4 ± 13.1 µg/mL (≈ 78.7 µM)	5.98 ± 0.62 µg/mL (≈ 12.3 µM)	2.43 ± 0.19 µg/mL (≈ 4.98 µM)	12.6 ± 4.05 µg/mL (≈ 25.9 µM)	significantly more efficient than FLC	significant longer survival	significantly higher when compared to FLC	significantly decreased	6.44 ± 0.17 µg/mL (≈ 13.2 µM)	< 0.001 µg/mL	6.27 ± 0.3 µg/mL (≈ 12.9 µM)	0.06 ± 0.01 µg/mL (≈ 0.123 µM)	0.64 ± 0.27 µg/mL (≈ 1.31 µM)	0.002 ± 0.001 µg/mL (≈ 0.0041 µM)	0.002 ± 0.001 µg/mL (≈ 0.0041 µM)	0.003 ± 0.001 µg/mL (≈ 0.00615 µM)	survival ([4]; 14 days, p<0.01): did survive significantly longer; activity compared with compounds 29 and 35 ([4]; p<0.05): significantly more active than compounds 29 and 35; fungal burden of the kidney ([4]; p<0.05): significantly reduced; IC50 [10]: 25 µM; MIC [13]: 0.45 ± 0.31 µg/mL (≈ 0.923 µM)
C[C@@H](n1ccc2nc(-c3ccc([N+](=O)[O-])cc3)cn2c1=O)[C@](O)(Cn1cncn1)c1ccc(F)cc1F [Compound 35, 6-[(1R,2R)-2-(2,4-Difluorophenyl)-2-hydroxy-1-methyl-3-(1H-1,2,4-triazol-1-yl)propyl]-2-(4-nitrophenyl)imidazo[1,2-c]pyrimidin-5-one]	effective	11.4 ± 1.5 µM	62.2 ± 2.92 µg/mL (≈ 123 µM)	6.19 ± 0.8 µg/mL (≈ 12.2 µM)	2.52 ± 0.05 µg/mL (≈ 4.97 µM)	25.6 ± 24.8 µg/mL (≈ 50.5 µM)	significantly more efficient than FLC	significant longer survival	significantly higher when compared to FLC	significantly decreased	7.45 ± 1 µg/mL (≈ 14.7 µM)	< 0.001 µg/mL	6.71 ± 0.06 µg/mL (≈ 13.2 µM)	0.07 ± 0.01 µg/mL (≈ 0.138 µM)	0.2 ± 0.06 µg/mL (≈ 0.394 µM)	0.011 ± 0.003 µg/mL (≈ 0.0217 µM)	0.004 ± 0.003 µg/mL (≈ 0.00788 µM)	0.007 ± 0.003 µg/mL (≈ 0.0138 µM)	cytotoxic effect at the higher concentration used [18]: didn't show any cytotoxic effect
